Several values for one entry are separate records, joined by “and”; a condition that tells them apart may be missing. Equal entries are not always repeated.
Key:
[1] = test system: anxiety and depression in PD patients with LID; assay: Hospital Anxiety Depression Scale (HADS), Phase 2a study; assay type: in vivo, human
Text: The HADS is used to determine the levels of anxiety and depression that a person is experiencing. The questionnaire consists of 7 items related to anxiety and 7 related to depression. Each item on the questionnaires is scored from 0-3, which means that a person can score between 0 and 21 for either anxiety or depression.

[2] = test system: models of pain, forced swim test, spinal cord injury model; settings: animal experiments; cited from earlier work
[3] = test system: Parkinson's disease symptoms in PD patients with LID; assay: Unified Parkinson's Disease Rating Scale (UPDRS), Phase 2a study; settings: for UPDRS Part 3, Baseline / UPDRS Part 3, Δ / UPDRS Total, Baseline / UPDRS Total, Δ: on NLX-112
Procedure: Because the level of dyskinesia experienced by patients can vary over time, they were given 150% (i.e., 1.5×) of their regular L-DOPA dose (up to a maximum of 250 mg) as a challenge 30 min before each dyskinesia assessment to improve comparability between patients and between visits. […] PD symptoms were assessed by Unified Parkinson's Disease Rating Scale (UPDRS) 30-90 min after the 150% L-DOPA challenge (i.e., when the patient was ON). Changes from baseline are shown for total score (i.e., Parts 1 to 4) and individual scores for each Part, 1, 2, 3 and 4.
Patients were challenged with 150% of their standard L-DOPA dose (maximum L-DOPA dose 250 mg) 30 minutes prior to the first UDysRS assessment. • Change from baseline in UDysRS total score at Day 28 and Day 42, after a 150% L-DOPA dose challenge. • Change from baseline in total objective score (Parts III, IV) of the UDysRS at Day 28 and Day 42, after a 150% L-DOPA dose challenge. • Change from baseline in ON Time Without Troublesome Dyskinesia (ON Without Dyskinesia plus ON With Non-troublesome Dyskinesia) based on a PD Home Dyskinesia Diary. • Change from baseline in Unified Parkinson's Disease Rating Scale (UPDRS) scores (Part III, motor examination). • Change from baseline in UPDRS combined scores (Parts I, II, III and IV). • Clinical Global Impression of Change (CGI-C) in overall PD symptoms • Change from baseline in dyskinesia scores measured by the Kinesia 360 (Great Lakes Neurotechnologies, Inc) wearable dyskinesia assessment system.
The UPDRS consists of 4 parts: • Part I assesses non-motor experiences of daily living, such as cognitive impairment and depressed mood. • Part II assesses motor experiences of daily living, such as speech and eating tasks. • Part III is a motor examination conducted by the clinician, including assessments of symptoms such as rigidity and tremor. • Part IV is an assessment of motor complications, such as time spent with dyskinesia and functional impact of dyskinesias.
Each item in the UPDRS is scored from 0 to 4, and the individual scores are summed to give a total score that indicates the severity of the disease, with a score of 0 indicating no disability and a score of 199 being the most severe (indicating total disability).
Change from baseline in UPDRS combined scores (Parts I, II, III and IV) to Visit 6 (Day 28) and Visit 7 (Day 42) respectively would be summarized using descriptive statistics. […] The same analysis would be done for UPDRS Part III only.

[4] = test system: 6-OH-DA lesioned rats; settings: cited from earlier work
[5] = test system: sleepiness in PD patients with LID; assay: Epworth Sleepiness Scale (ESS), Phase 2a study; assay type: in vivo, human
Text: The ESS is a self-administered questionnaire with 8 questions. Respondents are asked to rate, on a 4-point scale (0-3), their usual chances of dozing off or falling asleep while engaged in 8 different activities. The ESS score (the sum of 8 item scores, 0-3) can range from 0 to 24. Ratings are based on the previous month, or in the case of this study, the intervening period since the previous clinic visit (about 3 weeks).

[6] = Baseline, Per Protocol Set, n = 15
[7] = change from baseline at day 28 (end of up-titration period), Per Protocol Set, n = 15
[8] = change from baseline at day 42 (end of stable dosing period), Per Protocol Set, n = 15
[9] = Baseline, mean (SD), per-protocol set n = 15
[10] = Day 28, mean (SD), per-protocol set n = 15
[11] = Day 42, mean (SD), per-protocol set n = 15
[12] = Patient A, amantadine treatment 1 year
[13] = Patient B, amantadine treatment 2 years
[14] = Patient C, amantadine treatment 7 years
[15] = Patient D, amantadine treatment 11 years
[16] = Patient E, amantadine treatment 6 years
[17] = Visit 2 Baseline, Per protocol analysis set, n 15
[18] = Visit 6 Clinic Efficacy Visit (Day 28), Per protocol analysis set, n 15
[19] = Visit 6 Clinic Efficacy Visit, Full analysis set, n=15
[20] = Visit 7 Clinic Efficacy Visit (Day 42), Per protocol analysis set, n 15
[21] = Visit 7 Clinic Efficacy Visit, Full analysis set, n=15
[22] = Visit 9 Follow-up Clinic Visit, Full analysis set, n=15
[23] = Visit 9 Follow-up Clinic Visit, Per protocol analysis set, n 15

Cc1ccc(CNCC2(F)CCN(C(=O)c3ccc(F)c(Cl)c3)CC2)nc1 [NLX-112]
HADS (Anxiety), Baseline, mean (S.D.) [1, 6]: 4.5 (2.5)
HADS (Depression), Baseline, mean (S.D.) [1, 6]: 3.7 (2.7)
Anxiety and depression (HADS), effect ([1]; Days 28 or 42): no consistent statistically significant effect
HADS (Anxiety), Δ D28, mean (S.D.) [1, 7]: −0.5 (2.5)
HADS (Depression), Δ D28, mean (S.D.) [1, 7]: −0.4 (1.7)
HADS (Depression), Δ D42, mean (S.D.) [1, 8]: −0.6 (1.9)
Activity in models of pain, forced swim test and urinary function in a spinal cord injury model [2]: pronounced activity
UPDRS Part 1 [3, 9]: 1.0 (1.0)
UPDRS Part 4 [3, 9]: 8.0 (2.0)
UPDRS Part 3, change from baseline [3, 10]: −3.7 points and −3.7 (4.7)**# points
UPDRS Total (Parts 1 to 4), change from baseline [3, 10]: −6.5 points and −6.5 (7.6)*** points
UPDRS Part 3, change from baseline [3, 11]: −3.7 points and −3.7 (4.6)** points
UPDRS Total (Parts 1 to 4), change from baseline [3, 11]: −5.7 points and −5.7 (6.0)** points
UPDRS Part 3, Baseline [3, 12]: 8
UPDRS Part 3, Δ [3, 12]: −4
UPDRS Total, Baseline [3, 12]: 22
UPDRS Total, Δ [3, 12]: −5
UPDRS Part 3, Baseline [3, 13]: 22
UPDRS Part 3, Δ [3, 13]: −9
UPDRS Total, Baseline [3, 13]: 44
UPDRS Total, Δ [3, 13]: −15
UPDRS Part 3, Baseline [3, 14]: 28
UPDRS Part 3, Δ [3, 14]: −13
UPDRS Total, Baseline [3, 14]: 51
UPDRS Total, Δ [3, 14]: −11
UPDRS Part 3, Baseline [3, 15]: 11
UPDRS Part 3, Δ [3, 15]: +3
UPDRS Total, Baseline [3, 15]: 26
UPDRS Total, Δ [3, 15]: −5
UPDRS Part 3, Baseline [3, 16]: 15
UPDRS Part 3, Δ [3, 16]: +2
UPDRS Total, Baseline [3, 16]: 30
UPDRS Total, Δ [3, 16]: +3
UPDRS Part 3 Motor Total, collected value, Median (Min, Max) ([3]; Visit 2 Baseline, Full analysis set, n=18): 16.0 (3, 39)
UPDRS Part 3 Motor Total, collected value, Median (Min, Max) [3, 17]: 17.0 (3, 39)
UPDRS Total Score, Collected value, Mean (SD) [3, 17]: 37.0 (13.3)
UPDRS Total Score, Collected value, Median (Min, Max) [3, 17]: 36.0 (17, 66)
UPDRS Part 3 Motor Total, absolute change from baseline, Mean (SD) [3, 18]: −3.7 (4.7)
UPDRS Part 3 Motor Total, absolute change from baseline, Median (Min, Max) [3, 18]: −4.0 (−12, 5)
UPDRS Part 3 Motor Total, collected value, Median (Min, Max) [3, 18]: 14.0 (2, 30)
UPDRS Total Score, Absolute change from baseline, Mean (SD) [3, 18]: −6.5 (7.6)
UPDRS Total Score, Absolute change from baseline, Median (Min, Max) [3, 18]: −5.0 (−23, 6)
UPDRS Total Score, Collected value, Median (Min, Max) [3, 18]: 29.0 (13, 54)
UPDRS Part 3 Motor Total, absolute change from baseline, Mean (SD) [3, 19]: −3.7 (4.7)
UPDRS Part 3 Motor Total, absolute change from baseline, Median (Min, Max) [3, 19]: −4.0 (−12, 5)
UPDRS Part 3 Motor Total, collected value, Median (Min, Max) [3, 19]: 14.0 (2, 30)
UPDRS Total Score (all Parts), absolute change from baseline, Mean (SD) [3, 19]: −6.5 (7.6)
UPDRS Total Score (all Parts), absolute change from baseline, Median (Min, Max) [3, 19]: −5.0 (−23, 6)
UPDRS Total Score (all Parts), collected value, Median (Min, Max) [3, 19]: 29.0 (13, 54)
UPDRS Part 3 Motor Total, absolute change from baseline, Mean (SD) [3, 20]: −3.7 (4.6)
UPDRS Part 3 Motor Total, absolute change from baseline, Median (Min, Max) [3, 20]: −4.0 (−13, 3)
UPDRS Part 3 Motor Total, collected value, Median (Min, Max) [3, 20]: 14.0 (1, 35)
UPDRS Total Score, Absolute change from baseline, Mean (SD) [3, 20]: −5.7 (6.0)
UPDRS Total Score, Absolute change from baseline, Median (Min, Max) [3, 20]: −5.0 (−15, 4)
UPDRS Total Score, Collected value, Median (Min, Max) [3, 20]: 30.0 (15, 63)
UPDRS Part 3 Motor Total, absolute change from baseline, Mean (SD) [3, 21]: −3.7 (4.6)
UPDRS Part 3 Motor Total, absolute change from baseline, Median (Min, Max) [3, 21]: −4.0 (−13, 3)
UPDRS Part 3 Motor Total, collected value, Median (Min, Max) [3, 21]: 14.0 (1, 35)
UPDRS Total Score (all Parts), absolute change from baseline, Mean (SD) [3, 21]: −5.7 (6.0)
UPDRS Total Score (all Parts), absolute change from baseline, Median (Min, Max) [3, 21]: −5.0 (−15, 4)
UPDRS Total Score (all Parts), collected value, Median (Min, Max) [3, 21]: 30.0 (15, 63)
UPDRS Part 3 Motor Total, absolute change from baseline, Mean (SD) [3, 22]: −2.7 (5.5)
UPDRS Part 3 Motor Total, absolute change from baseline, Median (Min, Max) [3, 22]: −2.0 (−15, 4)
UPDRS Part 3 Motor Total, collected value, Median (Min, Max) [3, 22]: 13.0 (2, 32)
UPDRS Total Score (all Parts), absolute change from baseline, Mean (SD) [3, 22]: −4.4 (9.0)
UPDRS Total Score (all Parts), absolute change from baseline, Median (Min, Max) [3, 22]: −3.0 (−20, 7)
UPDRS Total Score (all Parts), collected value, Median (Min, Max) [3, 22]: 31.0 (15, 56)
UPDRS Part 3 Motor Total, absolute change from baseline, Mean (SD) [3, 23]: −2.7 (5.5)
UPDRS Part 3 Motor Total, absolute change from baseline, Median (Min, Max) [3, 23]: −2.0 (−15, 4)
UPDRS Part 3 Motor Total, collected value, Median (Min, Max) [3, 23]: 13.0 (2, 32)
UPDRS Total Score, Absolute change from baseline, Mean (SD) [3, 23]: −4.4 (9.0)
UPDRS Total Score, Absolute change from baseline, Median (Min, Max) [3, 23]: −3.0 (−20, 7)
UPDRS Total Score, Collected value, Median (Min, Max) [3, 23]: 31.0 (15, 56)
Reduction in UPDRS Part 3 scores, more than placebo ([3]; day 42): 3.9 points
Amantadine co-treated NLX-112 patients with decreases in UPDRS total score and UPDRS Part 3 ([3]; five patients also receiving amantadine): three
Effect on the beneficial anti-parkinsonian effects of L-DOPA ([3]; in vivo): did not worsen, and actually enhanced, the beneficial effects of L-DOPA
Amantadine co-treated NLX-112 patients with numerical reductions in PD symptoms (UPDRS) ([3]; patients on NLX-112 and amantadine): 4 of the 5
Rotation behavior ([4]; 6-OH-DA lesioned rats): increases rotation behavior
Dopamine surge following L-DOPA administration ([4]; parkinsonian rat model of LID): blunted
Striatal 5-HT release ([4]; parkinsonian rat model of LID): inhibited striatal 5-HT release
Antidyskinetic efficacy against L-DOPA-induced dyskinesia on chronic administration ([4]; rat, 2-week treatment period): did maintain its antidyskinetic efficacy
ESS, Baseline, mean (S.D.) [5, 6]: 8.3 (5.2)
Sleepiness (ESS), effect ([5]; Days 28 or 42): no consistent statistically significant effect
ESS, Δ D28, mean (S.D.) [5, 7]: −1.1 (3.3)
ESS, Δ D42, mean (S.D.) [5, 8]: −0.9 (3.4)
